Measured values as given in patent US20260256729A1, “CARBAMOYL PHEN[…] AS TAAR1 AGONISTS” (AXSOME THERAPEUTICS, INC., priority 2022, published 2026).
Like-named read-outs stand apart in the source and are kept apart here.

Legend:
[1] = biological target: human dopamine transporter (hDAT) (Homo sapiens, UniProt Q01959); assay: hDAT inhibition, in vitro binding and functional studies
wild type mice = assay: Open field locomotor activity, wild type mice; format: in vivo, mouse; details: subcutaneous, solriamfetol 10, 30 or 100 mg/kg, amphetamine 2 mg/kg
Method: (§1) Open field locomotor activity was assessed using an automated Omnitech Digiscan (AccuScan Instruments, Columbus, OH).

[2] = system: dopamine transporter deficient (DAT-/-) mice; assay: Open field locomotor activity, DAT-/- mice (hyperlocomotion); format: in vivo, mouse; details: subcutaneous, solriamfetol 10, 30 or 100 mg/kg, amphetamine 2 mg/kg
Method: as §1

[3] = Binding assay panel for additional targets
[4] = system: ventral tegmental area (VTA) dopaminergic neurons; assay: Firing frequency of VTA dopaminergic neurons in acute brain slices (electrophysiology); format: cell-based, mouse; details: for firing frequency of VTA neurons: acute slices from male C57Bl6/J mice, current clamp; for reduction in firing frequency after pre-treatment with D2 receptor antagonist sulpiride: acute slices
Method: The firing frequency of ventral tegmental area (VTA) dopaminergic neurons (n=4-8 cells/experiment) in acute slice preparations was recorded using electrophysiology and analyzed. Brain slices (250 μm thickness) containing VTA from male C57Bl6/J mice were prepared using standard procedures. Slices were perfused with artificial cerebrospinal fluid (aCSF) and spontaneous action potentials were recorded from dopaminergic neurons in current clamp conditions using […] and pClamp10 (Axon Instruments; Revel, Proc. Natl. Acad. Sci. USA 108(20):8485-90 (2011)). […] In addition, the reduction in firing frequency by solriamfetol or TAAR1 agonist RO5256390 was antagonized by pre-treatment with the D2 receptor antagonist sulpiride (FIG. 3A-3B).

[5] = biological target: T1, human norepinephrine transporter (hNET) (Homo sapiens, UniProt P23975); assay: hNET inhibition, in vitro binding and functional studies
[6] = biological target: T1, human norepinephrine transporter (hNET); set-up: host or cells: unnamed cell lines or membrane preparations; details: data from published literature (footnote b); cited from earlier work

T1 sequence (P23975 whole entry): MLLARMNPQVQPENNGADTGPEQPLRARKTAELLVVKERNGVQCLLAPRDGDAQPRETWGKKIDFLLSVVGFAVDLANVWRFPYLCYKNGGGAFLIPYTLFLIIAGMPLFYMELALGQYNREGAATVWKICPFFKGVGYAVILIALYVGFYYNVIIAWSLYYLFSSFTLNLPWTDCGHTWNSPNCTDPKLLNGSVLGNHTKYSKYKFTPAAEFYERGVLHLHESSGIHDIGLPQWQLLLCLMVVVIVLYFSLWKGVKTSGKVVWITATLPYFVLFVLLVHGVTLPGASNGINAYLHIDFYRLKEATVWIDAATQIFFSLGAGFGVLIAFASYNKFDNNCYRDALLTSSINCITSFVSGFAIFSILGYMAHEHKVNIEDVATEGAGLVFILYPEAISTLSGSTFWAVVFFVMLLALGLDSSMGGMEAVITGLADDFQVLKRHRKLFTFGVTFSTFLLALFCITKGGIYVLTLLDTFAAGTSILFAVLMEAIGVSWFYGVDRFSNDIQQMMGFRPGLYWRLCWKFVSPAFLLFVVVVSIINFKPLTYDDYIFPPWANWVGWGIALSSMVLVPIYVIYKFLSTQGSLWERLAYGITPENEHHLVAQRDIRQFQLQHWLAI
human dopamine transporter (hDAT), sequence (Q01959 whole entry): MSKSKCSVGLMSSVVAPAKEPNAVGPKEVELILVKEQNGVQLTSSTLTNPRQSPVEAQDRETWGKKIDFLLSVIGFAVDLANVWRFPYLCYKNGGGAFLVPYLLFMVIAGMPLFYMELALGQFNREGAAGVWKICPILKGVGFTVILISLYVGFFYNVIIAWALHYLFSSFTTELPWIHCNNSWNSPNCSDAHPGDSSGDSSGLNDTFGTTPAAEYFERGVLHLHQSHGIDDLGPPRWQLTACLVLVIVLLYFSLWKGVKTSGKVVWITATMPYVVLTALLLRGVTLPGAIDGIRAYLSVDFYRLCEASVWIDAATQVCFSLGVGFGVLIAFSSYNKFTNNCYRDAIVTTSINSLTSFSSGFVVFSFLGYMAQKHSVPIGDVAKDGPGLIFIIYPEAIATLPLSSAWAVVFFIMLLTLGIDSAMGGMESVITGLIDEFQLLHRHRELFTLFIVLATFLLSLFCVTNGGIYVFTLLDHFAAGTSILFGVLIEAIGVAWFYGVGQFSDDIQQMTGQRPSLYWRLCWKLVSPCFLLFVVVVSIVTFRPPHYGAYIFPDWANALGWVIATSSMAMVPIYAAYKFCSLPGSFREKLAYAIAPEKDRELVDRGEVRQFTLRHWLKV

Compound | locomotor activity (total distance traveled in 90 minutes) (wild type mice) | hyperlocomotion (total distance traveled in 90 minutes) [2] | firing frequency of VTA neurons [4] | reduction in firing frequency after pre-treatment with D2 receptor antagonist sulpiride [4] | IC50 [5] [µM] | other results
NC(=O)OC[C@H](N)Cc1ccccc1 [Solriamfetol, (R)-2-amino-3-phenylpropyl carbamate] | did not increase locomotor activity | reduced hyperlocomotion | inhibited firing frequency by VTA neurons in a dose-dependent manner | antagonized | 14.4 | IC50 [1]: 3.21 µM; additional targets in binding assay panel [3]: no additional targets were identified
CCN(C[C@H]1COC(N)=N1)c1ccccc1 [ROS166017] |  | reduced hyperlocomotion |  |  |  | 
CC[C@@H](C[C@H]1COC(N)=N1)c1ccccc1 [RO5256390] |  |  | inhibited firing frequency by VTA neurons in a dose-dependent manner | antagonized |  | 
CC(N)Cc1ccccc1 (centres unmarked) [amphetamine] | increase locomotor activity | reduced hyperlocomotion |  |  |  | 
(+)Methamphetamine |  |  |  |  |  | IC50 [6]: 0.0013 µM
NC(=O)C[S+]([O-])C(c1ccccc1)c1ccccc1 (centres unmarked) [Modafinil] |  |  |  |  | > 100 | 
